Patent US10016418B2, “Compounds useful as modulators of TRPM8” (Senomyx, Inc., priority 2010, dated 2018)
Blank lines part the entries; values can stand above or below the molecule they belong to.

Legend:
[1] = target: T1, hTRPM8 (Homo sapiens, UniProt Q7Z2W7); assay: hTRPM8 agonist assay in a mammalian cell line stably expressing hTRPM8; format: cell-based; conditions: for EC50 WS-3 Ratio: EC50 ratio to WS-3
T1 construct: expressed in transfected cells
Procedure: A mammalian cell line derivative which stably expresses hTRPM8 was used in biological assays in association with testing the present compounds with cool-tasting or -feeling properties (Servant et al. US 2007/0259354 A1 and references cited therein). Typical compound concentrations tested were 100 μM, 50 μM, 10 μM, 1 μM, and 0.5 μM. The present compounds have shown strong activity as agonists of hTRPM8. Assay results for compounds are illustrated in Table 1 below. Specifically, the Examples listed in Table 1, i.e., Compounds A1 to Compounds U10 are the specific compounds, i.e., Examples, as described above.

[2] = Cool Line Scale Test (sensory panel, 15 point line scale, WS-3 reference); format: in vivo, human
Procedure: All samples made with Low Sodium Buffer (LSB) pH ˜7.1 and contain 0.1% ethanol.
Compounds are rated on a 15 point line scale where 45 μM WS-3 (N-Ethyl-p-menthane-3-carboxamide) is ranked as a 5 in cool intensity. In most cases our compounds are tested to determine at what concentration the cooling intensity is equivalent to 45 μM WS-3. In each test, the panelist is presented with a 0 μM control sample, a 45 μM WS-3 control sample and the experimental compound sample and asked to rate the cooling intensity of each sample. Panelists are also asked to rate bitterness. In the table below there was no significant bitterness detected unless otherwise noted. Also, in the table below, n represents the number of tests completed for a given experiment (#panelists x #repetitions).
All samples were prepared with Low Sodium Buffer (LSB) pH ˜7.1 and contain 0.1% ethanol

[3] = Table 1, cell line stably expressing hTRPM8
[4] = Table 7, scaffold T7, Ar phenyl vs thienyl

T1 sequence (Q7Z2W7 whole entry): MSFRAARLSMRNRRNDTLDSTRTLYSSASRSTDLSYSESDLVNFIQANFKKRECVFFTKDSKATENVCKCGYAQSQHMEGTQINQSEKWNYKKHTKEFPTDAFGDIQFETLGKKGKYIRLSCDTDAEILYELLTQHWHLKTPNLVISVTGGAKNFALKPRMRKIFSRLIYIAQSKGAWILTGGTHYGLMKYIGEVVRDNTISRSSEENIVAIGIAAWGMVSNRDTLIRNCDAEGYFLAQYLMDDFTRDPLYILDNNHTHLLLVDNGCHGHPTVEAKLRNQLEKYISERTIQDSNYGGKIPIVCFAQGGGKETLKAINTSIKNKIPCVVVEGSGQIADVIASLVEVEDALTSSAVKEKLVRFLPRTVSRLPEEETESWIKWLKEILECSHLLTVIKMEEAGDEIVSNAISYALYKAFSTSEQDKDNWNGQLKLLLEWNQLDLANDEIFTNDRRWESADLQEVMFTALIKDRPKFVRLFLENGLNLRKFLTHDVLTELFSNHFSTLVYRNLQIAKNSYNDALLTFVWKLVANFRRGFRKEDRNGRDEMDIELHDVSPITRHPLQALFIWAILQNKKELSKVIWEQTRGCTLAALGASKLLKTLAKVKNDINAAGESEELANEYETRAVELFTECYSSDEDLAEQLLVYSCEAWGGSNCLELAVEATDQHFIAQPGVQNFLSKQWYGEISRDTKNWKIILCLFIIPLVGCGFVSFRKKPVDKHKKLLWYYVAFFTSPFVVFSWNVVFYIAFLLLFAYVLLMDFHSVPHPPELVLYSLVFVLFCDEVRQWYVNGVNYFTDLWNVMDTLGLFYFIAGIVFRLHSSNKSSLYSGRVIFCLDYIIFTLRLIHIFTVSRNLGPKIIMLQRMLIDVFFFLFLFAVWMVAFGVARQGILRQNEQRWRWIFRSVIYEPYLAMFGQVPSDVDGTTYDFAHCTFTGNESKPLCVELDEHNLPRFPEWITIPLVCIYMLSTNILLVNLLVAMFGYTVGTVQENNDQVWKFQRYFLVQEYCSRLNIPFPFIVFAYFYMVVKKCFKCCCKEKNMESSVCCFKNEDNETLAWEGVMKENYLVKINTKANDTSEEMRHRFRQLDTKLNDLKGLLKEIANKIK

- EC50 ([1]; Table 8, scaffold T8): > 1 nM
Compound: CCN(Cc1cccs1)C(=O)/C=C/c1ccc2c(c1)OCO2

- EC50 WS-3 Ratio ([1]; Table 1): 782471
- EC50 [1, 3]: 0.009 nM
Compound: O=C(COc1ccc2c(c1)CCC2)N(Cc1cccs1)c1cc[nH]n1 [Example A1, 2-(2,3-dihydro-1H-inden-5-yloxy)-N-(1H-pyrazol-3-yl)-N-(thiophen-2-ylmethyl)acetamide]

- EC50 WS-3 Ratio ([1]; Table 1): 1000000
- EC50 [1, 3]: 0.001 nM
Compound: Cc1c[nH]nc1N(Cc1cccs1)C(=O)COc1ccc2c(c1)CCC2 [Example B1, 2-(2,3-dihydro-1H-inden-5-yloxy)-N-(4-methyl-1H-pyrazol-3-yl)-N-(thiophen-2-ylmethyl)acetamide]
- Sensory Results: cooling compared with 0 μM WS-3 ([2]; compound at 5 μM): Panelists found 5 μM Compound B2 was significantly more cooling

- EC50 WS-3 Ratio ([1]; Table 1): 502141
- EC50 [1, 3]: 0.017 nM
Compound: O=C(COc1ccc2c(c1)CCC2)N(Cc1cccs1)c1cn[nH]c1 [Example C1, 2-(2,3-dihydro-1H-inden-5-yloxy)-N-(1H-pyrazol-4-yl)-N-(thiophen-2-ylmethyl)acetamide]

- EC50 WS-3 Ratio ([1]; Table 1): 21178
- EC50 [1, 3]: 0.205 nM
Compound: Cc1ccc(OCC(=O)N(Cc2cccs2)c2ccn[nH]2)cc1 [Example F1, N-(1H-pyrazol-5-yl)-N-(thiophen-2-ylmethyl)-2-(p-tolyloxy)acetamide]
- Average Cooling ([2]; Table 4, 3 μM in LSB pH ~7.1, 0.1% ethanol, n = 28): 5.1
- Sensory Results: cooling compared with 0 μM WS-3 ([2]; compound at 3 μM): Panelists found 3 μM Compound F1 was significantly more cooling
- Sensory Results: cooling compared with 45 μM WS-3 ([2]; compound at 3 μM): not significantly different in cooling

- EC50 WS-3 Ratio ([1]; Table 1): 577
- EC50 [1, 3]: 7.7 nM
Compound: CCN(Cc1cccs1)C(=O)COc1ccc(C)cc1 [Example U1, N-ethyl-N-(thiophen-2-ylmethyl)-2-(p-tolyloxy)acetamide]
- Sensory Results: cooling compared with 0 μM WS-3 ([2]; compound at 5 μM): Panelists found 5 μM Compound U1 was significantly more cooling

Compound: CCNC(=O)C1CC(C)CCC1C(C)C (centres unmarked) [WS-3, N-Ethyl-p-menthane-3-carboxamide, reference compound]
- Average Cooling ([2]; Table 2, 45 μM WS-3 control, LSB pH ~7.1, 0.1% ethanol, n = 30): 3.8
- Average Cooling ([2]; Table 4, 45 μM WS-3 control, n = 28): 5.2

- EC50 [1, 4]: 15600 nM
Compound: O=C(COc1ccc(Br)cc1)N(Cc1ccccc1)c1ccccn1 [drawing 234: 4-Br, 2-Pyridyl, Phenyl, reference compound]

- EC50 [1, 4]: 2270 nM
Compound: O=C(COc1ccc(Br)cc1)N(Cc1cccs1)c1ccccn1 [drawing 234: 4-Br, 2-Pyridyl, Thienyl]

- EC50 [1, 4]: 2320 nM
Compound: O=C(COc1ccc(Cl)cc1)N(Cc1cccs1)c1ccccn1 [drawing 234: 4-Cl, 2-Pyridyl, Thienyl]

- EC50 [1, 4]: 4720 nM
Compound: Cc1ccc(OCC(=O)N(Cc2ccccc2)c2ccccn2)cc1 [drawing 234: 4-Me, 2-Pyridyl, Phenyl, reference compound]

- EC50 [1, 4]: 505 nM
Compound: Cc1ccc(OCC(=O)N(Cc2cccs2)c2ccccn2)cc1 [drawing 234: 4-Me, 2-Pyridyl, Thienyl]

- EC50 [1, 4]: 776 nM
Compound: CCN(Cc1ccccc1)C(=O)COc1ccc(C)cc1 [drawing 234: 4-Me, Ethyl, Phenyl, reference compound]

- EC50 [1, 4]: 6.9 nM
Compound: CCN(Cc1cccs1)C(=O)COc1ccc(C)cc1 [drawing 234: 4-Me, Ethyl, Thienyl]

- EC50 [1, 4]: > 100000 nM
Compound: Cc1ccc(OCC(=O)N(C)Cc2ccccc2)cc1 [drawing 234: 4-Me, Methyl, Phenyl, reference compound]

- EC50 [1, 4]: 369 nM
Compound: Cc1ccc(OCC(=O)N(C)Cc2cccs2)cc1 [drawing 234: 4-Me, Methyl, Thienyl]

- EC50 [1, 4]: 9210 nM
Compound: CCN(Cc1ccccc1)C(=O)COc1ccccc1 [drawing 234: H, Ethyl, Phenyl, reference compound]

- EC50 [1, 4]: 1450 nM
Compound: CCN(Cc1cccs1)C(=O)COc1ccccc1 [drawing 234: H, Ethyl, Thienyl]
